Tested on: 994946-033-R-J1-PDC complex spheroid viability
Assay: Anticancer human tumor 994946-033-R-J1-PDC patient-derived melanoma cell line growth inhibition [POLQ]
Details: for IC50: curve of first compound; for viability, T/C: stronger effect = lower value
Method in brief: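 Complex spheroid viability model combining PDC tumour cells with endothelial (HUVEC) and MSC stromal cells. Novobiocin, ART-558 or RP6685 were tested singly and in combination with standard and investigational anticancer drugs. Each was titrated in half-log steps from near clinical Cmax, or from 10 microM where Cmax was unknown.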

[1] = second compound 0.0316 µM, first compound 0.0316 µM
[2] = second compound 0.0316 µM, first compound 0.1 µM
[3] = second compound 0.0316 µM, first compound 0.316 µM
[4] = second compound 0.0316 µM, first compound 1 µM
[5] = second compound 0.1 µM, first compound 0.0316 µM
[6] = second compound 0.1 µM, first compound 0.1 µM
[7] = second compound 0.1 µM, first compound 0.316 µM
[8] = second compound 0.1 µM, first compound 1 µM
[9] = second compound 0.316 µM, first compound 0.0316 µM
[10] = second compound 0.316 µM, first compound 0.1 µM
[11] = second compound 0.316 µM, first compound 0.316 µM
[12] = second compound 0.316 µM, first compound 1 µM
[13] = second compound 1 µM, first compound 0.0316 µM
[14] = second compound 1 µM, first compound 0.1 µM
[15] = second compound 1 µM, first compound 0.316 µM
[16] = second compound 1 µM, first compound 1 µM
[17] = second compound 3.16 µM, first compound 0.0316 µM
[18] = second compound 3.16 µM, first compound 0.1 µM
[19] = second compound 3.16 µM, first compound 0.316 µM
[20] = second compound 3.16 µM, first compound 1 µM
[21] = second compound 10 µM, first compound 0.0316 µM
[22] = second compound 10 µM, first compound 0.1 µM
[23] = second compound 10 µM, first compound 0.316 µM
[24] = second compound 10 µM, first compound 1 µM
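Also: spheroids exposed to drugs for 7 days.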
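For viability, T/C in this document: 100% = DMSO vehicle treated spheroids.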

## COc1cc(C2c3cc4c(cc3C(OC3OC5COC(C)OC5C(O)C3O)C3COC(=O)C23)OCO4)cc(OC)c1O (centres undefined) + Cc1cccc(N(C)C(=O)C2C(O)CCN2c2nc(C)cc(C(F)(F)F)c2C#N)c1
Second compound 0.0316 µM
  IC50: 183 nM
Second compound 0.1 µM
  IC50: 164 nM
Second compound 0.316 µM
  IC50: 250 nM
Second compound 1 µM
  IC50: 207 nM
Second compound 3.16 µM
  IC50: 388 nM
Second compound 10 µM
  IC50: 1260 nM
[1]
  viability, T/C: 76.3%
[2]
  viability, T/C: 55.2%
[3]
  viability, T/C: 42.6%
[4]
  viability, T/C: 32.4%
Second compound 0.0316 µM, first compound 3.16 µM
  viability, T/C: 14.2%
Second compound 0.0316 µM, first compound 10 µM
  viability, T/C: 6.56%
[5]
  viability, T/C: 77.8%
[6]
  viability, T/C: 47.9%
[7]
  viability, T/C: 44.9%
[8]
  viability, T/C: 32.4%
Second compound 0.1 µM, first compound 3.16 µM
  viability, T/C: 10.9%
Second compound 0.1 µM, first compound 10 µM
  viability, T/C: 5.27%
[9]
  viability, T/C: 79.7%
[10]
  viability, T/C: 63.1%
[11]
  viability, T/C: 34.4%
[12]
  viability, T/C: 49.7%
Second compound 0.316 µM, first compound 3.16 µM
  viability, T/C: 12.9%
Second compound 0.316 µM, first compound 10 µM
  viability, T/C: 8.08%
[13]
  viability, T/C: 89.2%
[14]
  viability, T/C: 49.1%
[15]
  viability, T/C: 47.2%
[16]
  viability, T/C: 35.3%
Second compound 1 µM, first compound 3.16 µM
  viability, T/C: 13.5%
Second compound 1 µM, first compound 10 µM
  viability, T/C: 5.19%
[17]
  viability, T/C: 72.5%
[18]
  viability, T/C: 64.5%
[19]
  viability, T/C: 56.8%
[20]
  viability, T/C: 27.4%
Second compound 3.16 µM, first compound 3.16 µM
  viability, T/C: 14.1%
Second compound 3.16 µM, first compound 10 µM
  viability, T/C: 5.31%
[21]
  viability, T/C: 67.5%
[22]
  viability, T/C: 45.3%
[23]
  viability, T/C: 63.3%
[24]
  viability, T/C: 58.7%
Second compound 10 µM, first compound 3.16 µM
  viability, T/C: 14.8%
Second compound 10 µM, first compound 10 µM
  viability, T/C: 6.96%

## COc1cccc(OCCCN)c1-c1cc(Nc2cnc(C#N)cn2)n[nH]1 + Nc1ccc(C#CCN(C(=O)Cc2ncc(C(F)(F)F)cc2C(F)(F)F)c2ccc(F)cc2)nn1
Second compound 0.0316 µM
  IC50: 25 nM
Second compound 0.1 µM
  IC50: 23.5 nM
Second compound 0.316 µM
  IC50: 17.1 nM
Second compound 1 µM
  IC50: 16.1 nM
Second compound 3.16 µM
  IC50: 23.7 nM
Second compound 10 µM
  IC50: 19.7 nM
Second compound 0.0316 µM, first compound 0.00316 µM
  viability, T/C: 71%
Second compound 0.0316 µM, first compound 0.01 µM
  viability, T/C: 66.9%
[1]
  viability, T/C: 34.4%
[2]
  viability, T/C: 49%
[3]
  viability, T/C: 14.3%
[4]
  viability, T/C: 17.4%
Second compound 0.1 µM, first compound 0.00316 µM
  viability, T/C: 86.9%
Second compound 0.1 µM, first compound 0.01 µM
  viability, T/C: 69.2%
[5]
  viability, T/C: 38.4%
[6]
  viability, T/C: 39.4%
[7]
  viability, T/C: 25%
[8]
  viability, T/C: 24.3%
Second compound 0.316 µM, first compound 0.00316 µM
  viability, T/C: 92.2%
Second compound 0.316 µM, first compound 0.01 µM
  viability, T/C: 66.1%
[9]
  viability, T/C: 31.9%
[10]
  viability, T/C: 19.9%
[11]
  viability, T/C: 25.6%
[12]
  viability, T/C: 15.7%
Second compound 1 µM, first compound 0.00316 µM
  viability, T/C: 80.1%
Second compound 1 µM, first compound 0.01 µM
  viability, T/C: 60.7%
[13]
  viability, T/C: 34.6%
[14]
  viability, T/C: 24.4%
[15]
  viability, T/C: 17.6%
[16]
  viability, T/C: 19%
Second compound 3.16 µM, first compound 0.00316 µM
  viability, T/C: 94.6%
Second compound 3.16 µM, first compound 0.01 µM
  viability, T/C: 66.6%
[17]
  viability, T/C: 47.5%
[18]
  viability, T/C: 24.2%
[19]
  viability, T/C: 28.7%
[20]
  viability, T/C: 19.9%
Second compound 10 µM, first compound 0.00316 µM
  viability, T/C: 100%
Second compound 10 µM, first compound 0.01 µM
  viability, T/C: 64.5%
[21]
  viability, T/C: 30.5%
[22]
  viability, T/C: 44.3%
[23]
  viability, T/C: 30.3%
[24]
  viability, T/C: 19.1%

— PubChem BioAssay AID1963827 (Molecular Pharmacology Branch, DTP, NCI, 2024)
